Experimental data taken from patent publication US7247645B2, “Dihydropyridine derivatives” (Ajinomoto Co., Inc., priority 1999, dated 2007).
Read-outs that look alike come from different tables or passages of the source.

Columns and labels:
N-type calcium channel [1] = molecular target: T1, N-type calcium channel (Homo sapiens, UniProt Q00975); assay: Antagonistic activity on N-type calcium channel (fluorescence dye method), IMR-32 cells, in presence of 1 μM Nifedipine; type: cell-based; conditions: 60 mM KCl stimulation, 0.1, 1 or 10 μM test compound, Table 9, read-out: N-type inhibition pIC50 (converted)
T1 sequence (Q00975 whole entry): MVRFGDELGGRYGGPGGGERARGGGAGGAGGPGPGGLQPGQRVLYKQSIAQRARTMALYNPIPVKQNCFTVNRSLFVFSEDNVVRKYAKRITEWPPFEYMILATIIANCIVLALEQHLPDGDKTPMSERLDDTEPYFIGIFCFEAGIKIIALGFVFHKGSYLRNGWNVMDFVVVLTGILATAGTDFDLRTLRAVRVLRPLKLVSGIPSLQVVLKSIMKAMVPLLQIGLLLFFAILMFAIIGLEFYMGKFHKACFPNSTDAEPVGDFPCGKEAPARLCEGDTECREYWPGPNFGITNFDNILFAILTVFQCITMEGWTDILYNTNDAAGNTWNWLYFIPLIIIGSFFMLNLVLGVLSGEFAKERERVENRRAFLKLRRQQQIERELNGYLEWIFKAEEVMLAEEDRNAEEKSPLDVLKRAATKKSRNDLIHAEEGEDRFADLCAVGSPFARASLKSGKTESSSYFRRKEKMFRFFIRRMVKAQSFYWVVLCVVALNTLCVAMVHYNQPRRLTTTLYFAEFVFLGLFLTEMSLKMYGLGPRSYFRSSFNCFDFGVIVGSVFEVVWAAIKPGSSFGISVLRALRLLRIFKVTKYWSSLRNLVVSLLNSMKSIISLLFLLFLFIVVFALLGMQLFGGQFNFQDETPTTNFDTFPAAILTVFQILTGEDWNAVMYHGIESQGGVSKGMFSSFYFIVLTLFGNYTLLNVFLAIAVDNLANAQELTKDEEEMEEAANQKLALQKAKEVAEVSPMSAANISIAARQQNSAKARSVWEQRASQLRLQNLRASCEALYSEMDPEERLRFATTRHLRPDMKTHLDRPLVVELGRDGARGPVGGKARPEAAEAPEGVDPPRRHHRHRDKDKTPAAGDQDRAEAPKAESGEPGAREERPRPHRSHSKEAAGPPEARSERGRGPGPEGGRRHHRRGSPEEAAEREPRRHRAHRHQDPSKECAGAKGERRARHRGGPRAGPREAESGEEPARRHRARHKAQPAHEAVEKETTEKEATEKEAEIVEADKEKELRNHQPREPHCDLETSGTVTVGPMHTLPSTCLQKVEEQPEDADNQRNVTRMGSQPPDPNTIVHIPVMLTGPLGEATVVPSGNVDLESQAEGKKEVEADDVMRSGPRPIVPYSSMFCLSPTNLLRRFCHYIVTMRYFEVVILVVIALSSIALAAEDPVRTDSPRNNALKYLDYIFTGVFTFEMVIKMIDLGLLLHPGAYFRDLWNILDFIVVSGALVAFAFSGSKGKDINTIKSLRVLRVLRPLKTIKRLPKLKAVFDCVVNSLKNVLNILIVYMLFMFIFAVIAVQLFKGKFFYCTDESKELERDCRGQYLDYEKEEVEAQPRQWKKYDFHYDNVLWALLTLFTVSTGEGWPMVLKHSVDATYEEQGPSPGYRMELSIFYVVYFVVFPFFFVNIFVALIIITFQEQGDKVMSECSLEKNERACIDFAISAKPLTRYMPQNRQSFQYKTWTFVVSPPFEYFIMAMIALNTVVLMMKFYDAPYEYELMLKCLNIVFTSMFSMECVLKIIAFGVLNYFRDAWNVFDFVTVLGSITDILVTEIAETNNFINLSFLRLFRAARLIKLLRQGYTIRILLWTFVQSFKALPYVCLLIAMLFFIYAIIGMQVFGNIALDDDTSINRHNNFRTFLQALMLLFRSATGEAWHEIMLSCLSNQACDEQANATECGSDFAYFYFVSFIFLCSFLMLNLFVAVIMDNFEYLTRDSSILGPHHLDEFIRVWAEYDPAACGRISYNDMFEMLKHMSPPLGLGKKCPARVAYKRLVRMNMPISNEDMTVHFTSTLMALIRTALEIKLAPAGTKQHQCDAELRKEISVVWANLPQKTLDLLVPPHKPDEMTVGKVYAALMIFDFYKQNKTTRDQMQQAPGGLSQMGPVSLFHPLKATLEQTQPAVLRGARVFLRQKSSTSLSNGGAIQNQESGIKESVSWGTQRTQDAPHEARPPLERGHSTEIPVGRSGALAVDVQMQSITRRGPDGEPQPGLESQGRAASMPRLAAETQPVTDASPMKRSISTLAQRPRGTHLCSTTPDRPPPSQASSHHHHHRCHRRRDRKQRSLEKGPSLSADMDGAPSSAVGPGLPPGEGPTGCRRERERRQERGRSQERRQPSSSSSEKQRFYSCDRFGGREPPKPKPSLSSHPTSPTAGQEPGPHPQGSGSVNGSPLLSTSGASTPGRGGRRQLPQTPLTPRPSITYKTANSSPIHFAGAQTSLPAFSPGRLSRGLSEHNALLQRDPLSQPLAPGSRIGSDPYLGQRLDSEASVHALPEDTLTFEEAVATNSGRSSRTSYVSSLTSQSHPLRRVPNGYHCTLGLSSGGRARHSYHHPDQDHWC
T1 sequence (P54289 25-1103 partner): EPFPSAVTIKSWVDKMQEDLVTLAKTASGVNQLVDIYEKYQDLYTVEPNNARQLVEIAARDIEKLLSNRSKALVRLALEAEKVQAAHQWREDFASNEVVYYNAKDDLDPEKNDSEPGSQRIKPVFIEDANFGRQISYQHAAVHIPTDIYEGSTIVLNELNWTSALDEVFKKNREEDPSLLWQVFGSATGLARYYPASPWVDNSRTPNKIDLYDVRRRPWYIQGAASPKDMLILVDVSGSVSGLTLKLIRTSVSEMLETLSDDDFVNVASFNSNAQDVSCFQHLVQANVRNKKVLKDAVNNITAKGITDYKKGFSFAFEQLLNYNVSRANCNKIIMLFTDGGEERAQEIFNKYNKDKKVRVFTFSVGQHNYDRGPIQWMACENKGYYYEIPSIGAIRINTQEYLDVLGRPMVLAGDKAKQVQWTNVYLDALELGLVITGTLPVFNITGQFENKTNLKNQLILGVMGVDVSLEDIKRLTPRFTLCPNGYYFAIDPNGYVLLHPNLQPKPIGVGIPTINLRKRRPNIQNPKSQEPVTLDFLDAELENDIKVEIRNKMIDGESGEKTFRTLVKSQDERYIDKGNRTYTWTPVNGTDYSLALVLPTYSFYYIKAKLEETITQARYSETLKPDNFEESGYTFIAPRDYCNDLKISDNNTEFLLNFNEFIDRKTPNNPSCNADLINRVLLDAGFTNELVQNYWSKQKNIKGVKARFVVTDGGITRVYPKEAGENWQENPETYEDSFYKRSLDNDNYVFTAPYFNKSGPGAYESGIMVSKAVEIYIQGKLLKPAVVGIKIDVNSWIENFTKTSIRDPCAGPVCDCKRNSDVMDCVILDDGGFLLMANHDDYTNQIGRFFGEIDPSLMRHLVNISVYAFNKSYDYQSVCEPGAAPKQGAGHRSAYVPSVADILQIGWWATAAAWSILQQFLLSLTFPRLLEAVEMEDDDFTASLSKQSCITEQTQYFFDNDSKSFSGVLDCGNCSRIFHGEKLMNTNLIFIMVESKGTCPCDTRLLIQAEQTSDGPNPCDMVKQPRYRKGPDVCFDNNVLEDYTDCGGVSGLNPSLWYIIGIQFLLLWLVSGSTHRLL
T1 sequence (P54284 whole entry partner): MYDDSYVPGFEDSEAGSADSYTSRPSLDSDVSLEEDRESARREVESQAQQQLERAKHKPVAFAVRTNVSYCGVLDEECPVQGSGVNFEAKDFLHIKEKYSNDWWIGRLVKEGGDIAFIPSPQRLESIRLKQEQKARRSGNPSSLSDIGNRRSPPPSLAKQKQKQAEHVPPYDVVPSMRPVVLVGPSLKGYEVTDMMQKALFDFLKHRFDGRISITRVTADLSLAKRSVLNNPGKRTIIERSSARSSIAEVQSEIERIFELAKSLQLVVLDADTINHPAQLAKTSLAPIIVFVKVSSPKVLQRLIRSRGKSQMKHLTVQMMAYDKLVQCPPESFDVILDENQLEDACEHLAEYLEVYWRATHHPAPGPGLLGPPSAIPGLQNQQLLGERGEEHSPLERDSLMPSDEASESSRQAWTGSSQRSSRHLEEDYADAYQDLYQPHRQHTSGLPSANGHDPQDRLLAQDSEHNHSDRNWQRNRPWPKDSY
Protocol: (§1) The medium used was a Phenol Red-free Eagle minimum essential medium (GIBCO) containing earle's salts supplement, 2 mM of L-glutamine (GIBCO), 1 mM of sodium pyruvate (pH 6.5) (GIBCO), antibiotic/antimicotic mixture (GIBCO) and 10% fetal calf serum (Cell Culture Technologies). 3 ml of 1×10^5/ml IMR-32 cells were spread on a glass dish (Iwaki Glass Co., Ltd.) having a diameter of 35 mm which was treated with poly-D-lysin (SIGMA) and collagen (COLLAGEN VITROGEN 100, Collagen Co.). After the culture for 2 days, 1 mM (final concentration) of dibutyl cAMP and 2.5 μM of bromodeoxyuridine (SIGMA) were added. After the culture for additional 10 to 14 days, the cells were subjected to the activity determination. The medium for IMR-32 cells thus prepared was replaced with 1 ml of Phenol Red-free Eagle minimum essential medium (GIBCO) containing […] 10 μM fura-2/AM (Dojin Kagaku, Co.) and earle's salts supplement, and the incubation was conducted at 25° C. for 1 hour.
(§2) Then the medium was replaced with Phenol Red-free Eagle minimum essential medium (GIBCO) containing earle's salts supplement, from which fura-2/AM had been removed. After the incubation at 37° C. for 1 hour, the medium was replaced with a recording medium (20 mM of HEPES-KOH, 115 mM of NaCl, 5.4 mM of KCl, 0.8 mM of MgCl2, 1.8 mM of CaCl2 and 13.8 mM of D-glucose). Antagonistic activity on N-type calcium channel was determined and analyzed by using a fluorescence microscope (Nikon Corporation) and an image analysis device ARGUS 50 (Hamamatsu Photonics). In particular, a recording medium (20 mM of HEPES-KOH, 115 mM of NaCl, 5.4 mM of KCl, 0.8 mM of MgCl2, 1.8 mM of CaCl2 and 13.8 mM of D-glucose) containing 1 μM of Nifedipine was given to the cells by reflux by a Y-tube method. Then a stimulating agent containing 60 mM of potassium chloride was rapidly given by the Y-tube method. Thereafter stimulating agents containing 60 mM of potassium chloride and 0.1, 1 or 10 μM of test compound were successively rapidly given by the Y-tube method to determine the antagonistic activity on the channel. Finally, a stimulating agent containing 60 mM of potassium chloride and 1 μM of omega conotoxin GVIA (Peptide institute, inc.) was rapidly given by the Y-tube method to realize a condition of 100% inhibition of N-type calcium channel.

N-type calcium channel [2] = molecular target: T1, N-type calcium channel; assay: N-type calcium channel antagonistic activity, changed procedure (calcium concentration change in IMR-32 cells, calculated from inhibition rates); type: cell-based; conditions: 60 mM KCl stimulation, Table 10, read-out: N-type inhibition pIC50 (converted)
Protocol: as §1, §2
The same procedure as that of the above-described tests was repeated except for the following changes: 60 mM of potassium chloride-containing stimulating agent was rapidly given by the Y-tube method while the calcium concentration change in the cells was examined in terms of N-type calcium channel activity. Then Stimulating agents containing 60 mM of potassium chloride and 0.1, 1 or 10 μM of test compound were successively and rapidly given by the Y-tube method. A change in calcium concentration in the cells was determined.

L-type calcium channel = molecular target: T2, L-type calcium channel (Rattus norvegicus, UniProt P22002); assay: Antagonistic activity on L-type calcium channel: relaxation of KCl contraction of rat thoracic aorta samples; conditions: High K+ (50 mM KCl) contraction
T2 construct: The slips of thoracic aorta extracted from a Sprague-Dawry rat was used; from tissue; host or cells: rat (Sprague-Dawley) thoracic aorta rings, endothelium removed
Protocol: The activity of the dihydropyridine derivatives of the present invention to inhibit L-type calcium channel was determined by the following method in which the relaxation reaction on the KCl contraction of samples of thoracic aorta extracted from rats was employed.
1) Method of preparation of samples of thoracic aorta extracted from rats:
The slips of thoracic aorta extracted from a Sprague-Dawry rat was used. The blood vessels were cut to obtain ring-shaped samples having a width of about 3 mm. The endothelial cells of the blood vessel were mechanically removed. The samples were suspended in a strain gage in Tyrode's solution (158.3 mM of NaCl, 4.0 mM of KCl, 1.05 mM of MgCl2, 0.42 mM of NaH2PO4, 10 mM of NaHCO3, 2 mM of CaCl2 and 5 mM of glucose) in which a gaseous mixture of O2 (95%) and CO2 (5%) was introduced. A static tension of 2 g was applied hereto. The tension of the blood vessel was amplified with transducer and a tension amplifier (EF-601G; Nihon Koden Corporation) and recorded with a multi-pen recorder (Rikadenki Kogyo Co., Ltd.). The experiments were conducted at 37° C.
2) Determination of Relaxation After KCl Contraction:
After the tension had been stabilized, the nutrient solution in the sample tank was replaced with High K^+ Tyrode's solution (112.3 mM of NaCl, 50 mM of KCl, 1.05 mM of MgCl2, 0.42 mM of NaH2PO4, 10 mM of NaHCO3, 2 mM of CaCl2 and 5 mM of glucose) to conduct the contraction reaction. 30 minutes after, the solution in the sample tank was replaced with the normal Tyrode's solution. The solution in the sample tank was again replaced with the High K^+ Tyrode's solution and the contraction reaction was observed. After attaining the maximum contraction reaction, the test compound was cumulatively added at intervals of […] to attain concentrations of 10^−7, 10^−6 and 10^−5M. The rate of the test compound to control the maximum contraction reaction was employed as the index of the inhibition activity on L-type calcium channel.

[3] = Table 9, read-out: L-type inhibition IC50
[4] = Table 10, read-out: L-type inhibition IC50

| Structure (SMILES) | IC50 (N-type calcium channel [1]) [nM] | IC50 (N-type calcium channel [2]) [nM] | IC50 (L-type calcium channel; [3]) [nM] | IC50 (L-type calcium channel; [4]) [nM] |
| --- | --- | --- | --- | --- |
| CC1=C(C(=O)O)C(c2cccc(Cl)c2)C(C(=O)OCCC(c2ccccc2)c2ccccc2)=C(COCCN2CCCCC2)N1 (stereo not shown) [Example 12, 5-(3,3-diphenylpropane-1-yl)4-(3-chlorophenyl)-2-methyl-6-(2-piperidine-1-yl-ethoxymethyl)-1,4-dihydropyridine-3,5-dicarboxylate] | 1580 | 3980 | 2690 | – |
| COCC1=C(C(=O)OCCC(c2ccccc2)c2ccccc2)C(c2cccc(Cl)c2)C(C(=O)O)=C(C)N1 (stereo not shown) [Example 14, 3-(3,3-diphenylpropane-1-yl)4-(3-chlorophenyl)-2-methoxymethyl-6-methyl-1,4-dihydropyridine-3,5-dicarboxylate] | 1200 | 2000 | 4280 | 4270 |
| CC1=C(C(=O)OCCC(c2ccccc2)c2ccccc2)C(c2cccc(Cl)c2)C(C(=O)N2CCN(C(=O)OC(C)(C)C)CC2)=C(C)N1 (stereo not shown) [Example 15, t-butyl 4-(4-(3-chlorophenyl)-5-(3,3-diphenylpropoxycarbonyl)-2,6-dimethyl-1,4-dihydropyridine-3-carbonyl)piperazine-1-carboxylate] | 372 | – | 20800 | – |
| CC1=C(C(=O)O)C(c2cccc(Cl)c2)C(C(=O)OCCC(c2ccccc2)c2ccccc2)=C(COCCO)N1 (stereo not shown) [Example 20, 3-(3,3-diphenylpropane-1-yl)4-(3-chlorophenyl)-2-(2-hydroxyethoxymethyl)-6-methyl-1,4-dihydropyridine-3,5-dicarboxylate] | 1780 | 3160 | 2780 | 2880 |
| CC1=C(C(=O)OCCC(c2ccccc2)c2ccccc2)C(c2cccc(Cl)c2)C(C(=O)O)=C(COCCN2CCCCC2)N1 (stereo not shown) [Example 23, 3-(3,3-diphenylpropane-1-yl)4-(3-chlorophenyl)-2-methyl-6-(2-(piperidine-1-yl)ethoxymethyl)-1,4-dihydropyridine-3,5-dicarboxylate] | 1200 | 1580 | 1800 | 1820 |
| CC1=C(C(=O)O)C(c2cccc(Cl)c2)C(C(=O)OCCC(c2ccccc2)c2ccccc2)=C(COCCc2cccnc2)N1 (stereo not shown) [Example 33, 5-(3,3-diphenyl-1-propyl)4-(3-chlorophenyl)-2-methyl-6-(2-(3-pyridine)ethoxy)methyl-1,4-dihydropyridine-3,5-dicarboxylate] | – | 1580 | – | 1700 |
| CC1=C(C(=O)O)C(c2cccc(Cl)c2)C(C(=O)OCCC(c2ccccc2)c2ccccc2)=C(COCCc2ccncc2)N1 (stereo not shown) [Example 54, 5-(3,3-diphenylpropyl)4-(3-chlorophenyl)-2-methyl-6-(2-[pyridine-4-yl]ethoxymethyl)-1,4-dihydropyridine-3,5-dicarboxylate] | – | 2000 | – | 1580 |
| CC1=C(C(=O)O)C(c2cccc(Cl)c2)C(C(=O)OCCC(c2ccccc2)c2ccccc2)=C(C(F)(F)F)N1 (stereo not shown) [Example 57, 5-(3,3-diphenylpropyl)4-(3-chlorophenyl)-2-methyl-6-trifluoromethyl-1,4-dihydropyridine-3,5-dicarboxylate] | – | 1580 | – | 1780 |
| COC(OC)C1=C(C(=O)OCCC(c2ccccc2)c2ccccc2)C(c2cccc(Cl)c2)C(C(=O)O)=C(C)N1 (stereo not shown) [Example 60, 3-(3,3-diphenylpropyl)4-(3-chlorophenyl)-2-dimethoxymethyl-6-methyl-1,4-dihydropyridine-3,5-dicarboxylate] | – | 1580 | – | 3890 |
